Laboratory results taken from patent US10837044B2, “Automated method for analyzing and interpreting an antimicrobial susceptibility” (FONDATION MEDITERRANEE INFECTION, priority 2014, dated 2020).

Tests used:
Proteus mirabilis = assay: antibiogram by diffusion on Mueller-Hinton agar with antibiotic wafers; assay type: cell-based; conditions: Table C1, six wafers, disk loads of Table B
Method: (§1) The inoculum was prepared by making a suspension of bacteria directly from colonies put into solution in tubes of sterile water so that the solution presented accurate opacity as determined with a spectrophotometer equivalent to the opacity of a 0.5 standard in the McFarland range. This bacterial suspension concentration is standardized since a more concentrated inoculum would lead to smaller diameters for the inhibition zone, and vice versa.
(§2) The inoculum corresponds to concentrations of about 10^8 CFU/mL for Escherichia coli, Klebsiella pneumoniae, Proteus mirabilis, Klebsiella oxytoca, Enterobacter cloacea, Enterobacter aerogenes, Entercoccus faecalis, Pseudomonas aeruginosa, Staphylococcus aureus, and Staphylococcus epidermidis. These are the ten species bacteria that are encountered the most frequently in human pathologies.
(§3) 1.2) The bacterial sample was deposited on a solid culture medium in a petri dish having a diameter of 90 mm or in a square dish having a side of 120 mm, the medium being constituted by a Mueller-Hinton agar specific for (EUCAST) antibiograms. Ideally, it should be used in the 15 minutes (min) following preparation of the suspension.
(§4) Seeding was done by the method of diffusion on an agar medium by flooding in which excess bacterial suspension was added to the Mueller-Hinton agar. After homogenizing, excess liquid was discarded in order to avoid over-inoculating the dishes. It is necessary to wait beforehand for the surface of the agar to be dry in order to eliminate any trace of moisture encouraging bacterial invasion.
(§5) The disks of the antibiotic wafers were deposited within 15 min after inoculating the agar. The antibiotic impregnated disks were deposited using an automatic dispenser that placed the disks firmly on the surface of the inoculated and dried agar. The number of disks deposited per dish was limited because of inhibition zone overlap and in order to limit interference between antibiotics. It is important for the inhibition diameters to be measurable. The antibiograms were then incubated at 37° C. for 18 hours (h) to 24 h.
(§6) The antibiotic wafers were made of high quality absorbent paper with a diameter of 6 mm and they were impregnated with antibiotics at concentrations in the range 1 micrograms (μg) to 300 μg approximately, depending on the antibiotic.
(§7) In the examples below, reference disks were used as sold by the suppliers i2a (Montpellier, France), BD (Becton Dickinson, USA), Bio-Rad (Hercules, USA), Biomerieux (Marcy l′Etoile, France) containing the following antibiotics and carrying the following codes and the following doses: AMX (amoxicillin) 25 μg: AMC (amoxicillin-clavulanic acid) 20 μg-10 μg; GM for gentamicin, 15 μg; SXT (trimethoprim-sulfamethoxazole) 1.25/23.75 μg; TIC (ticarcillin) 75 μg; TCC (ticarcillin-clavulanic acid) […]; TZP (piperacillin-tazobactam) 75/10 μg; CAZ (ceftazidime) 30 μg; IMP or IPM (imipeneme) 10 μg; COL (colistin) 50 μg; FOX (cefoxitine) 30 μg; VAN (vancomycin) 30 μg; TEC (teicoplanin) 30 μg; CLI or DA (clindamycin) 2 μg; CRO (ceftriaxone) 30 μg; CIP (ciprofloxacin) 5 μg; OFX (ofloxacin) 5 μg; CTX (cefotaxime) 5 μg; AN or AK (amikacin) 30 μg; TM (tobramycin) 10 μg; FOX (cefoxitine) 30 μg; ATM (aztreonam) 30 μg; ERT (ertapenem) 10 μg; FF (fosfomycin) 200 μg; DO (doxycycline) 30 μg; K (kanamycin) 1000 μg; L (lincomycin) 15 μs; LNZ (linezolid) 10 μg; AN (nalidixic acid) 30 μg; NOR (norfloxacin) 10 μg; PT (pristinamycin) 15 μg; RA (rifampicin) 5 μg; and E (erythromycin) 15 μg.

Escherichia coli = assay: as above; assay type: cell-based; conditions: for resistance (I, R) or sensitivity (S): Table C1, disk loads of Table B; for resistant (I/R) or sensitive (S): Table C2, square dish
Method: as §1, §2, §3, §4, §5, §6, §7

Enterobacter cloacea = assay: as above; assay type: cell-based; conditions: Table C1, six wafers, disk loads of Table B
Method: as §1, §2, §3, §4, §5, §6, §7

Klebsiella oxytoca = assay: as above; assay type: cell-based; conditions: Table C1; K. oxytoca phenotype Wild; six wafers, disk loads of Table B
Method: as §1, §2, §3, §4, §5, §6, §7

Klebsiella pneumoniae = assay: as above; assay type: cell-based; conditions: for resistance (I, R) or sensitivity (S): Table C1, six wafers, disk loads of Table B; for resistant (I/R) or sensitive (S): Table C2, sixteen wafers, square dish
Method: as §1, §2, §3, §4, §5, §6, §7

Pseudomonas aeruginosa = assay: as above; assay type: cell-based; conditions: Table C1, six wafers, disk loads of Table B
Method: as §1, §2, §3, §4, §5, §6, §7

Enterobacter aerogenes = assay: as above; assay type: cell-based; conditions: Table C1, six wafers, disk loads of Table B
Method: as §1, §2, §3, §4, §5, §6, §7

BSBL bacteria = conditions: all of the BSBL bacteria in Table C1
Text: Synergies are generated with the method on agar by the antibiotics diffusing in the agar as a result of the fact that providing the distance between two antibiotics is small enough (in the range 2 centimeters (cm) to 2.5 cm for Gram negative bacteria) they are capable of diffusing over a common portion of the agar, and as a result it is the association of the two antibiotics in this specific location that makes it possible, where appropriate, to see the appearance of a new inhibition zone, which is the synergy zone.
In the event of synergy occurring, it is possible to see mechanisms of synergy between two antibiotics since an additional inhibition zone appears generally between the two antibiotics in question. It may be in the form of an enlargement of the diameter around the disk A going towards the disk B if A and B present mutual synergy.
The BSBL phenotype includes a synergy phenotype between ceftriaxone and clavulanic acid, and thus between CRO and TCC or AMC (for all of the BSBL bacteria in the table).

[1] = P. mirabilis phenotype Hl cephalosporinase
[2] = P. mirabilis phenotype Hl penicillinase
[3] = P. mirabilis phenotype Inhibitor resistant penicillinase
[4] = P. mirabilis phenotype Ll penicillinase
[5] = E. coli phenotype BSBL, six wafers
[6] = E. coli phenotype Carbapenemase, six wafers
[7] = E. coli phenotype Hl cephalosporinase, six wafers
[8] = E. coli phenotype Hl penicillinase, six wafers
[9] = E. coli phenotype Inhibitor resistant penicillinase, six wafers
[10] = E. coli phenotype Ll penicillinase, six wafers
[11] = E. coli phenotype Wild, six wafers in a circle
[12] = E. coli phenotype Cephalosporinase + R to fluoroquinolones + R to cotrimoxazole + partial R to aminosides, sixteen wafers
[13] = E. coli phenotype Hl penicillinase + R to fluoroquinolones + R to cotrimoxazole + partial R to aminosides, sixteen wafers
[14] = E. coli phenotype Wild, sixteen wafers in a rectangular grid
[15] = K. pneumoniae phenotype Carbapenemase
[16] = K. pneumoniae phenotype Hl cephalosporinase
[17] = K. pneumoniae phenotype Hl penicillinase
[18] = K. pneumoniae phenotype Ll penicillinase
[19] = K. pneumoniae phenotype Cephalosporinase + R to aminosides + R to cotrimoxazole
[20] = P. aeruginosa Abnormal phenotype
[21] = P. aeruginosa phenotype Carbapenemase
[22] = P. aeruginosa phenotype Penicillinase
[23] = P. aeruginosa phenotype Selective imipenem permeability

C[C@@H](O)[C@H]1C(=O)N2C(C(=O)O)=C(SCCN=CN)C[C@H]12 [IMP, imipenem]
resistance (I, R) or sensitivity (S) (Proteus mirabilis; [1]): S
resistance (I, R) or sensitivity (S) (Proteus mirabilis; [2]): S
resistance (I, R) or sensitivity (S) (Proteus mirabilis; [3]): S
resistance (I, R) or sensitivity (S) (Proteus mirabilis; [4]): S
resistance (I, R) or sensitivity (S) (Proteus mirabilis; P. mirabilis phenotype Wild): S
resistance (I, R) or sensitivity (S) (Escherichia coli; [5]): S
resistance (I, R) or sensitivity (S) (Escherichia coli; [6]): R
resistance (I, R) or sensitivity (S) (Escherichia coli; [7]): S
resistance (I, R) or sensitivity (S) (Escherichia coli; [8]): S
resistance (I, R) or sensitivity (S) (Escherichia coli; [9]): S
resistance (I, R) or sensitivity (S) (Escherichia coli; [10]): S
resistance (I, R) or sensitivity (S) (Escherichia coli; [11]): S
resistant (I/R) or sensitive (S) (Escherichia coli; [12]): S
resistant (I/R) or sensitive (S) (Escherichia coli; [13]): S
resistant (I/R) or sensitive (S) (Escherichia coli; [14]): S
resistance (I, R) or sensitivity (S) (Enterobacter cloacea; E. cloacae phenotype BSBL): S
resistance (I, R) or sensitivity (S) (Enterobacter cloacea; E. cloacae phenotype Wild): S
resistance (I, R) or sensitivity (S) (Klebsiella oxytoca): S
resistance (I, R) or sensitivity (S) (Klebsiella pneumoniae; K. pneumoniae phenotype BSBL): S
resistance (I, R) or sensitivity (S) (Klebsiella pneumoniae; [15]): R
resistance (I, R) or sensitivity (S) (Klebsiella pneumoniae; [16]): S
resistance (I, R) or sensitivity (S) (Klebsiella pneumoniae; [17]): S
resistance (I, R) or sensitivity (S) (Klebsiella pneumoniae; [18]): S
resistance (I, R) or sensitivity (S) (Klebsiella pneumoniae; K. pneumoniae phenotype Wild): S
resistant (I/R) or sensitive (S) (Klebsiella pneumoniae; [19]): S
resistant (I/R) or sensitive (S) (Klebsiella pneumoniae; K. pneumoniae phenotype Wild): S
resistance (I, R) or sensitivity (S) (Pseudomonas aeruginosa; [20]): S
resistance (I, R) or sensitivity (S) (Pseudomonas aeruginosa; P. aeruginosa phenotype BSBL): S
resistance (I, R) or sensitivity (S) (Pseudomonas aeruginosa; [21]): R
resistance (I, R) or sensitivity (S) (Pseudomonas aeruginosa; [22]): S
resistance (I, R) or sensitivity (S) (Pseudomonas aeruginosa; [23]): I
resistance (I, R) or sensitivity (S) (Pseudomonas aeruginosa; P. aeruginosa phenotype Wild): S
resistance (I, R) or sensitivity (S) (Enterobacter aerogenes; E. aerogenes phenotype BSBL): S
resistance (I, R) or sensitivity (S) (Enterobacter aerogenes; E. aerogenes phenotype Wild): S

piperacillin-tazobactam [TZP]
resistance (I, R) or sensitivity (S) (Enterobacter cloacea; E. cloacae phenotype BSBL): R
resistance (I, R) or sensitivity (S) (Enterobacter cloacea; E. cloacae phenotype Wild): S
resistance (I, R) or sensitivity (S) (Klebsiella oxytoca): S
resistance (I, R) or sensitivity (S) (Klebsiella pneumoniae; K. pneumoniae phenotype BSBL): R/I
resistance (I, R) or sensitivity (S) (Klebsiella pneumoniae; [15]): R
resistance (I, R) or sensitivity (S) (Klebsiella pneumoniae; [16]): I/R
resistance (I, R) or sensitivity (S) (Klebsiella pneumoniae; [17]): S/I/R
resistance (I, R) or sensitivity (S) (Klebsiella pneumoniae; [18]): R
resistance (I, R) or sensitivity (S) (Klebsiella pneumoniae; K. pneumoniae phenotype Wild): S
resistance (I, R) or sensitivity (S) (Pseudomonas aeruginosa; [20]): R/S
resistance (I, R) or sensitivity (S) (Pseudomonas aeruginosa; P. aeruginosa phenotype BSBL): I/R
resistance (I, R) or sensitivity (S) (Pseudomonas aeruginosa; [21]): R
resistance (I, R) or sensitivity (S) (Pseudomonas aeruginosa; [22]): I/S
resistance (I, R) or sensitivity (S) (Pseudomonas aeruginosa; [23]): S
resistance (I, R) or sensitivity (S) (Pseudomonas aeruginosa; P. aeruginosa phenotype Wild): S
resistance (I, R) or sensitivity (S) (Enterobacter aerogenes; E. aerogenes phenotype BSBL): R
resistance (I, R) or sensitivity (S) (Enterobacter aerogenes; E. aerogenes phenotype Wild): S

ticarcillin-clavulanic acid [TCC]
synergy phenotype between antibiotics (BSBL bacteria): synergy
resistance (I, R) or sensitivity (S) (Proteus mirabilis; [1]): R
resistance (I, R) or sensitivity (S) (Proteus mirabilis; [2]): I
resistance (I, R) or sensitivity (S) (Proteus mirabilis; [3]): R
resistance (I, R) or sensitivity (S) (Proteus mirabilis; [4]): S
resistance (I, R) or sensitivity (S) (Proteus mirabilis; P. mirabilis phenotype Wild): S
synergy zone between two antibiotic wafers placed side by side (Escherichia coli; E. coli cephalosporinase phenotype (FIGS. 2D, 2E)): absence of a zone of synergy
synergy zone between two antibiotic wafers placed side by side (Escherichia coli; E. coli strain of BSBL phenotype, champagne-cork shaped inhibition zone): presence of a zone of synergy
resistance (I, R) or sensitivity (S) (Escherichia coli; [5]): R
resistance (I, R) or sensitivity (S) (Escherichia coli; [6]): R
resistance (I, R) or sensitivity (S) (Escherichia coli; [7]): R
resistance (I, R) or sensitivity (S) (Escherichia coli; [8]): I/R
resistance (I, R) or sensitivity (S) (Escherichia coli; [9]): R
resistance (I, R) or sensitivity (S) (Escherichia coli; [10]): S
resistance (I, R) or sensitivity (S) (Escherichia coli; [11]): S
resistant (I/R) or sensitive (S) (Escherichia coli; [12]): R
resistant (I/R) or sensitive (S) (Escherichia coli; [13]): I
resistant (I/R) or sensitive (S) (Escherichia coli; [14]): S
resistant (I/R) or sensitive (S) (Klebsiella pneumoniae; [19]): R
resistant (I/R) or sensitive (S) (Klebsiella pneumoniae; K. pneumoniae phenotype Wild): R
resistance (I, R) or sensitivity (S) (Pseudomonas aeruginosa; [20]): R
resistance (I, R) or sensitivity (S) (Pseudomonas aeruginosa; P. aeruginosa phenotype BSBL): I/R
resistance (I, R) or sensitivity (S) (Pseudomonas aeruginosa; [21]): R
resistance (I, R) or sensitivity (S) (Pseudomonas aeruginosa; [22]): I/R
resistance (I, R) or sensitivity (S) (Pseudomonas aeruginosa; [23]): S
resistance (I, R) or sensitivity (S) (Pseudomonas aeruginosa; P. aeruginosa phenotype Wild): S

CO/N=C(\C(=O)N[C@@H]1C(=O)N2C(C(=O)[O-])=C(C[N+]3(C)CCCC3)CS[C@H]12)c1csc(N)n1 [FEP, cefepime]
resistance (I, R) or sensitivity (S) (Proteus mirabilis; [1]): R
resistance (I, R) or sensitivity (S) (Proteus mirabilis; [2]): S
resistance (I, R) or sensitivity (S) (Proteus mirabilis; [3]): S
resistance (I, R) or sensitivity (S) (Proteus mirabilis; [4]): S
resistance (I, R) or sensitivity (S) (Proteus mirabilis; P. mirabilis phenotype Wild): S
resistance (I, R) or sensitivity (S) (Escherichia coli; [5]): R
resistance (I, R) or sensitivity (S) (Escherichia coli; [6]): R
resistance (I, R) or sensitivity (S) (Escherichia coli; [7]): R
resistance (I, R) or sensitivity (S) (Escherichia coli; [8]): S
resistance (I, R) or sensitivity (S) (Escherichia coli; [9]): S
resistance (I, R) or sensitivity (S) (Escherichia coli; [10]): S
resistance (I, R) or sensitivity (S) (Escherichia coli; [11]): S
resistance (I, R) or sensitivity (S) (Enterobacter cloacea; E. cloacae phenotype BSBL): R
resistance (I, R) or sensitivity (S) (Enterobacter cloacea; E. cloacae phenotype Wild): S
resistance (I, R) or sensitivity (S) (Klebsiella oxytoca): S
resistance (I, R) or sensitivity (S) (Klebsiella pneumoniae; K. pneumoniae phenotype BSBL): R
resistance (I, R) or sensitivity (S) (Klebsiella pneumoniae; [15]): R
resistance (I, R) or sensitivity (S) (Klebsiella pneumoniae; [16]): S
resistance (I, R) or sensitivity (S) (Klebsiella pneumoniae; [17]): S
resistance (I, R) or sensitivity (S) (Klebsiella pneumoniae; [18]): S
resistance (I, R) or sensitivity (S) (Klebsiella pneumoniae; K. pneumoniae phenotype Wild): S
resistance (I, R) or sensitivity (S) (Pseudomonas aeruginosa; [20]): R
resistance (I, R) or sensitivity (S) (Pseudomonas aeruginosa; P. aeruginosa phenotype BSBL): I/R
resistance (I, R) or sensitivity (S) (Pseudomonas aeruginosa; [21]): R
resistance (I, R) or sensitivity (S) (Pseudomonas aeruginosa; [22]): S
resistance (I, R) or sensitivity (S) (Pseudomonas aeruginosa; [23]): S
resistance (I, R) or sensitivity (S) (Pseudomonas aeruginosa; P. aeruginosa phenotype Wild): S
resistance (I, R) or sensitivity (S) (Enterobacter aerogenes; E. aerogenes phenotype BSBL): R/I
resistance (I, R) or sensitivity (S) (Enterobacter aerogenes; E. aerogenes phenotype Wild): S
